Experimental data reported in the NIST ThermoML archive (doi:10.1007/s10765-011-1086-8).
Numbers after ± are expanded uncertainties. One block for each molecule: values may come before it.

Assays:
[1] = relative permittivity at various frequencies (dimensionless); conditions: 303.15 K, 101 kPa, Liquid, Frequency=1 MHz
[2] = relative permittivity at various frequencies (dimensionless); xn = mol fraction of the nth substance listed; conditions: 303.15 K, 101 kPa, Liquid, Frequency=1 MHz, Parallel plate capacitor

relative permittivity [1]: 46.05 ± 0.28
Compound: C[S+](C)[O-] [dimethyl sulfoxide]

relative permittivity ([1]; Parallel plate capacitor): 2.26 ± 0.014
Compound: C1COCCO1 [1,4-dioxane]

relative permittivity ([2]; x1 = 0.122): 40.58 ± 0.24 | relative permittivity ([2]; x1 = 0.23): 45 ± 0.27 | relative permittivity ([2]; x1 = 0.327): 49.26 ± 0.3 | relative permittivity ([2]; x1 = 0.414): 53.6 ± 0.32 | relative permittivity ([2]; x1 = 0.493): 58.17 ± 0.35 | relative permittivity ([2]; x1 = 0.5): 58.5 ± 0.35 | relative permittivity ([2]; x1 = 0.565): 63.22 ± 0.38 | relative permittivity ([2]; x1 = 0.63): 67.66 ± 0.41 | relative permittivity ([2]; x1 = 0.69): 72.58 ± 0.44 | relative permittivity ([2]; x1 = 0.745): 77.4 ± 0.46 | relative permittivity ([2]; x1 = 0.796): 82.52 ± 0.5 | relative permittivity ([2]; x1 = 0.843): 86.95 ± 0.52 | relative permittivity ([2]; x1 = 0.886): 91.84 ± 0.55 | relative permittivity ([2]; x1 = 0.927): 96.1 ± 0.58 | relative permittivity ([2]; x1 = 0.965): 101.77 ± 0.61 | relative permittivity ([2]; x1 = 1): 106.14 ± 0.64
Compound: NC=O [formamide] + CN(C)C=O

relative permittivity ([2]; x1 = 0.144): 36.91 ± 0.22 | relative permittivity ([2]; x1 = 0.275): 44.61 ± 0.27 | relative permittivity ([2]; x1 = 0.394): 52.04 ± 0.31 | relative permittivity ([2]; x1 = 0.5): 59.52 ± 0.36 | relative permittivity ([2]; x1 = 0.503): 59.14 ± 0.35 | relative permittivity ([2]; x1 = 0.603): 66.34 ± 0.4 | relative permittivity ([2]; x1 = 0.695): 74.02 ± 0.44 | relative permittivity ([2]; x1 = 0.78): 81.77 ± 0.49 | relative permittivity ([2]; x1 = 0.859): 90.12 ± 0.54 | relative permittivity ([2]; x1 = 0.932): 97.77 ± 0.59 | relative permittivity ([2]; x1 = 1): 106.14 ± 0.64
Compound: NC=O [formamide] + NCCO

relative permittivity ([2]; x2 = 0): 36.55 ± 0.22
Compound: CN(C)C=O [dimethylformamide] + NC=O

relative permittivity ([1]; Parallel plate capacitor): 76.53 ± 0.46
Compound: O [water]

relative permittivity ([1]; Parallel plate capacitor): 106.14 ± 0.64
Compound: NC=O [formamide]

relative permittivity ([1]; Parallel plate capacitor): 36.55 ± 0.22
Compound: CN(C)C=O [dimethylformamide]
